23 compounds from ChEMBL document CHEMBL5385862, “Acyloxymethyl and alkoxycarbonyloxymethyl prodrugs of a fosmidomycin surrogate as antimalarial and antibacterial agents” (Eur J Med Chem, 2023) can be followed below.

By pIC50 is commonly meant −log10 of the IC50, conventionally taken in molar units. The CC50 is the concentration at which the toxic effect on the cells reaches its halfway point.

Structures are written as SMILES. pIC50: −log10 of the molar value. Where only a bound is given, the exact number is not on record here.

One data set has as its system Plasmodium falciparum. Description: Antiplasmodial activity against asexual blood stage Plasmodium falciparum K1 assessed as inhibition of parasitic growth. In kind it is functional, organism-based.
The test system of data set [1] is Mycobacterium tuberculosis. Nature of the data set: Antitubercular activity against Mycobacterium tuberculosis H37Ra assessed as inhibition of bacterial growth. The format is functional, organism-based.
A further data set has as its system Acinetobacter baumannii. Nature of the data set: Antibacterial activity against Acinetobacter baumannii assessed as inhibition of bacterial growth. In kind it is functional, organism-based.
Data set [2] in a line: Cytotoxicity against human MRC5 cells assessed as reduction in cell viability. In kind it is toxicity, cell-based.
Data set [3] can be described thus: Selectivity index ratio of CC50 for cytotoxicity against human MRC5 cells to IC50 for antiplasmodial activity against asexual blood stage Plasmodium falciparum K1 assessed as inhibition of parasitic growth. The format is toxicity, cell-based. As to conditions: read-out: Ratio CC50/IC50.
Data set [4] is described as follows: Selectivity index ratio of CC50 for cytotoxicity against human MRC5 cells to IC50 for antibacterial activity against Acinetobacter baumannii assessed as inhibition of bacterial growth. The format is toxicity, cell-based. Conditions: read-out: Ratio CC50/IC50.

For the compound `CN(O)C(=O)CCCP(=O)(OCOC(=O)C(C)(C)C)OCOC(=O)C(C)(C)C`, the results for the pIC50 (with Plasmodium falciparum; in data set [1]; in the data set with Acinetobacter baumannii) were 6.07, less than 4.25 and 4.92, respectively. In data set [2], the CC50 is greater than 51 µM. Also, the selectivity ratio in data set [3] was greater than 59; in data set [4], greater than 4.3.

For the compound `CN(O)C(=O)CCCP(=O)(OCOC(=O)c1ccccc1)OCOC(=O)c1ccccc1`, the values for the pIC50 (in the data set with Plasmodium falciparum; in data set [1]; with Acinetobacter baumannii) were 6.92, less than 4.19 and 5.09, respectively. Moreover, the CC50 in data set [2] is 28.1 µM. The selectivity ratio came to 234 in data set [3] and 3.4 in data set [4].

Turning to `CC(C)OC(=O)OCOP(=O)(CCCC(=O)N(C)O)OCOC(=O)OC(C)C`, the pIC50 in the data set on Plasmodium falciparum is 6.96; in data set [1], less than 4.19; in the data set with Acinetobacter baumannii, less than 3.83. In addition, the CC50 in data set [2] was greater than 50.7 µM. In data set [3], the selectivity ratio is greater than 461.

On to `CCON(C)C(=O)CCCP(=O)(OCOC(=O)c1coc(-c2ccccc2O)n1)OCOC(=O)c1coc(-c2ccccc2O)n1`, for which the results for the pIC50 (in the data set on Plasmodium falciparum; in data set [1]; in the data set on Acinetobacter baumannii) were 6.27, less than 4.19 and 4.80, respectively. In addition, the CC50 in data set [2] was found to be 26 µM. Further, the selectivity ratio in data set [3] stood at 48; in data set [4] it was 1.6.

Consider `CN(O)C(=O)CCCP(=O)(OCOC(=O)OCCCc1ccccc1)OCOC(=O)OCCCc1ccccc1`, for which the results for the pIC50 (in the data set on Plasmodium falciparum; in data set [1]; in the data set on Acinetobacter baumannii) were 7.05, less than 4.19 and 5.59, respectively. Besides, the CC50 in data set [2] is greater than 64 µM. Moreover, the selectivity ratio in data set [3] is greater than 711; in data set [4], greater than 25.

For the compound `CN(O)C(=O)CCCP(=O)(OCOC(=O)/C=C/c1ccccc1)OCOC(=O)/C=C/c1ccccc1`, the pIC50 in the data set with Plasmodium falciparum was 7.30; in data set [1], less than 4.19; in the data set with Acinetobacter baumannii it was 5.25. Further, the CC50 in data set [2] was found to be 30.3 µM. Besides, the selectivity ratio is 606 in data set [3] and 5.4 in data set [4].

Take `CN(O)C(=O)CCCP(=O)(OCOC(=O)c1ccc(Cl)cc1)OCOC(=O)c1ccc(Cl)cc1`: the figures for the pIC50 (with Plasmodium falciparum; in data set [1]; with Acinetobacter baumannii) were 6.85, less than 4.19 and 4.41, respectively. The CC50 in data set [2] amounted to 31.2 µM. Moreover, the results for the selectivity ratio in data set [3] and in data set [4] were 223 and 0.8, respectively.

Consider `CCON(C)C(=O)CCCP(=O)(OCOC(=O)c1cccc(O)c1O)OCOC(=O)c1cccc(O)c1O`, for which the negative logarithm of the IC50 (pIC50) in the data set on Plasmodium falciparum is 5.98; in data set [1], less than 4.19; with Acinetobacter baumannii, less than 3.92. Moreover, the CC50 in data set [2] is greater than 64 µM. Further, the selectivity ratio in data set [3] was greater than 61.

In the case of `CCCCCCCC(=O)OCOP(=O)(CCCC(=O)N(C)O)OCOC(=O)CCCCCCC`, the pIC50 is 7.52 in the data set with Plasmodium falciparum, less than 4.19 in data set [1] and 6.41 with Acinetobacter baumannii. The CC50 in data set [2] is 40.3 µM. For the same compound, the selectivity ratio in data set [3] stood at 1340; in data set [4], 103.

As for `CN(O)C(=O)CCCP(=O)(OCOC(=O)c1cccc(Cl)c1)OCOC(=O)c1cccc(Cl)c1`, the pIC50 in the data set on Plasmodium falciparum is 6.85; in data set [1], less than 4.19; in the data set on Acinetobacter baumannii it was 4.27. Moreover, the CC50 in data set [2] was greater than 64 µM. In addition, the selectivity ratio was greater than 457 in data set [3] and greater than 1.2 in data set [4].

On to `CCON(C)C(=O)CCCP(=O)(OCOC(=O)c1ccccc1O)OCOC(=O)c1ccccc1O`, for which the pIC50 with Plasmodium falciparum was 6.55; in data set [1], less than 4.19; in the data set on Acinetobacter baumannii, less than 3.89. In data set [2], the CC50 was greater than 64 µM. The selectivity ratio in data set [3] is greater than 229.

In the case of `CCCCCCCC(=O)OCOP(=O)(OCOC(=O)CCCCCCC)C(CCC(=O)N(C)O)c1ccc(Cl)c(Cl)c1` (stereo not drawn), the pIC50 in the data set with Plasmodium falciparum is 6.36; in data set [1], less than 4.19; in the data set on Acinetobacter baumannii it was 4.96. Further, in data set [2], the CC50 came to 22.5 µM. The selectivity ratio was 51 in data set [3] and 2 in data set [4].

Take `CN(O)C(=O)CCCP(=O)(OCOC(=O)CCCCc1ccccc1)OCOC(=O)CCCCc1ccccc1`: the figures for the pIC50 (in the data set with Plasmodium falciparum; in data set [1]; in the data set on Acinetobacter baumannii) were 7.30, less than 4.19 and 5.62, respectively. The CC50 in data set [2] is greater than 64 µM. In addition, the selectivity ratio was greater than 1280 in data set [3] and greater than 27 in data set [4].

On to `CN(O)C(=O)CCC(c1ccc(Cl)c(Cl)c1)P(=O)(OCOC(=O)/C=C/c1ccccc1)OCOC(=O)/C=C/c1ccccc1` (stereo not drawn), for which the pIC50 in the data set with Plasmodium falciparum is 5.35; in data set [1], less than 4.19; with Acinetobacter baumannii, less than 4.01. Moreover, in data set [2], the CC50 amounted to 24.6 µM. The selectivity ratio in data set [3] amounted to 5.6.

With `CC(C)OC(=O)OCOP(=O)(OCOC(=O)OC(C)C)C(CCC(=O)N(C)O)c1ccc(Cl)c(Cl)c1` (stereo not drawn), the values for the negative logarithm of the IC50 (pIC50) (in the data set with Plasmodium falciparum; in data set [1]; in the data set on Acinetobacter baumannii) were 6.64, less than 4.19 and less than 3.95, respectively. The CC50 in data set [2] is 7.58 µM. The selectivity ratio in data set [3] came to 33.

In the case of `CN(O)C(=O)CCCP(=O)(OCOC(=O)c1ccc2ccccc2c1)OCOC(=O)c1ccc2ccccc2c1`, the pIC50 was 6.60 in the data set with Plasmodium falciparum, less than 4.19 in data set [1] and 4.29 in the data set with Acinetobacter baumannii. Besides, the CC50 in data set [2] turned out to be 27.2 µM. For the same compound, the results for the selectivity ratio in data set [3] and in data set [4] were 109 and 0.53, respectively.

Turning to `CN(O)C(=O)CCC(c1ccc(Cl)c(Cl)c1)P(=O)(OCOC(=O)C(C)(C)C)OCOC(=O)C(C)(C)C` (stereo not drawn), the pIC50 is 6.36 in the data set with Plasmodium falciparum, less than 4.19 in data set [1] and less than 3.95 in the data set with Acinetobacter baumannii. Moreover, the CC50 in data set [2] turned out to be 6.81 µM. Also, the selectivity ratio in data set [3] came out at 15.

For `CCCCCCCCOC(=O)OCOP(=O)(CCCC(=O)N(C)O)OCOC(=O)OCCCCCCCC`, the pIC50 was 7.15 with Plasmodium falciparum, less than 4.19 in data set [1] and 6.15 with Acinetobacter baumannii. The CC50 in data set [2] came out at 37.7 µM. In addition, the selectivity ratio worked out at 539 in data set [3] and 54 in data set [4].

In the case of `COc1ccc(C(=O)OCOP(=O)(CCCC(=O)N(C)O)OCOC(=O)c2ccc(OC)cc2)cc1`, the pIC50 with Plasmodium falciparum is 6.74; in data set [1] it was less than 4.19; in the data set on Acinetobacter baumannii, 5.00. Moreover, the CC50 in data set [2] was found to be 33.1 µM. Moreover, the values for the selectivity ratio in data set [3] and in data set [4] were 184 and 3.3, respectively.

`Cc1ccc(C(=O)OCOP(=O)(CCCC(=O)N(C)O)OCOC(=O)c2ccc(C)cc2)cc1`: the pIC50 in the data set on Plasmodium falciparum was 6.24; in data set [1], less than 4.19; in the data set with Acinetobacter baumannii it was 4.96. Moreover, the CC50 in data set [2] was greater than 64 µM. Further, the values for the selectivity ratio in data set [3] and in data set [4] were greater than 112 and greater than 5.8, respectively.

Take `CCON(C)C(=O)CCCP(=O)(OCOC(=O)OCc1coc(-c2ccccc2O)n1)OCOC(=O)OCc1coc(-c2ccccc2O)n1`: the negative-log IC50 (pIC50) in the data set with Plasmodium falciparum was 6.38; in data set [1] it was less than 4.19; with Acinetobacter baumannii, 5.15. Further, in data set [2], the CC50 worked out at 25.5 µM. The selectivity ratio turned out to be 61 in data set [3] and 3.6 in data set [4].

On to `CN(O)C(=O)CCCP(=O)(OCOC(=O)CCc1ccccc1)OCOC(=O)CCc1ccccc1`, for which the values for the negative-log IC50 (pIC50) (in the data set with Plasmodium falciparum; in data set [1]; in the data set on Acinetobacter baumannii) were 7.05, less than 4.19 and 4.68, respectively. In addition, the CC50 in data set [2] is greater than 64 µM. Besides, the selectivity ratio is greater than 711 in data set [3] and greater than 3 in data set [4].

On to `O=CN(O)CCCP(=O)(O)O` [FOSMIDOMYCIN SODIUM], for which the pIC50 in data set [1] was less than 4.19. Also, the CC50 in data set [2] was greater than 64 µM.
